# How the values were obtained:
# Assay type in all cases: functional
# [1] = tested on: Mycobacterium tuberculosis; test: Synergistic antitubercular activity against Mycobacterium tuberculosis bedaquiline-resistant mutant 7 assessed as bedaquiline MIC=>90 at 0.4 ug/ml by microplate alamar blue assay (reference value: 0.9 uM); settings: dose 0.4 µg/ml
# [2] = tested on: Mycobacterium tuberculosis; test: Synergistic antitubercular activity against Mycobacterium tuberculosis isoniazid-resistant mutant assessed as isoniazid growth inhibition at 0.4 ug/ml by microplate alamar blue assay (reference value: 0%); settings: dose 0.4 µg/ml
# [3] = tested on: Mycobacterium tuberculosis; test: Antitubercular activity against Mycobacterium tuberculosis H37Rv harboring LuxABCDE assessed as reduction in luminescence supplemented with fresh medium containing compound on day 2 and 5 by luminescence assay; settings: 120 h, time 5 day
# [4] = tested on: Mycobacterium tuberculosis; test: Synergistic antitubercular activity against Mycobacterium tuberculosis isoniazid-resistant mutant assessed as isoniazid MIC=>90 at 0.4 ug/ml by microplate alamar blue assay (Rvb >8 uM); settings: dose 0.4 µg/ml
# [5] = tested on: Mycobacterium tuberculosis; test: Synergistic antitubercular activity against Mycobacterium tuberculosis rifampin-resistant mutant assessed as rifampin growth inhibition at 0.4 ug/ml by microplate alamar blue assay (reference value: 46%); settings: dose 0.4 µg/ml
# [6] = tested on: Mycobacterium tuberculosis; test: Antitubercular activity against isoniazid-resistant Mycobacterium tuberculosis H37Rv by microplate alamar blue assay
# [7] = tested on: Mycobacterium tuberculosis; test: Synergistic antitubercular activity against Mycobacterium tuberculosis rifampin-resistant mutant assessed as rifampin MIC=>90 at 0.4 ug/ml by microplate alamar blue assay (Rvb >1 uM); settings: dose 0.4 µg/ml
# [8] = tested on: Mycobacterium tuberculosis; test: Synergistic antitubercular activity against Mycobacterium tuberculosis bedaquiline-resistant mutant H15 assessed as bedaquiline growth inhibition at 0.4 ug/ml by microplate alamar blue assay (reference value: 75%); settings: dose 0.4 µg/ml
# [9] = tested on: Mycobacterium tuberculosis; test: Antitubercular activity against rifampin-resistant Mycobacterium tuberculosis H37Rv by microplate alamar blue assay
# [10] = tested on: Mycobacterium tuberculosis; test: Synergistic antitubercular activity against Mycobacterium tuberculosis bedaquiline-resistant mutant H15 assessed as bedaquiline MIC=>90 at 0.4 ug/ml by microplate alamar blue assay (Rvb >2 uM); settings: dose 0.4 µg/ml
# [11] = tested on: Mycobacterium tuberculosis; test: Synergistic antitubercular activity against Mycobacterium tuberculosis isoniazid-resistant mutant assessed as isoniazid MIC=>90 at 0.8 ug/ml by microplate alamar blue assay (Rvb >8 uM); settings: dose 0.8 µg/ml
# [12] = tested on: Mycobacterium tuberculosis; test: Synergistic antitubercular activity against Mycobacterium tuberculosis isoniazid-resistant mutant assessed as isoniazid growth inhibition at 0.8 ug/ml by microplate alamar blue assay (reference value: 0%); settings: dose 0.8 µg/ml
# [13] = tested on: Mycobacterium tuberculosis; test: Synergistic antitubercular activity against Mycobacterium tuberculosis rifampin-resistant mutant assessed as rifampin MIC=>90 at 0.8 ug/ml by microplate alamar blue assay (Rvb >1 uM); settings: dose 0.8 µg/ml
# [14] = tested on: Mycobacterium tuberculosis; test: Synergistic antitubercular activity against Mycobacterium tuberculosis bedaquiline-resistant mutant H15 assessed as bedaquiline growth inhibition at 0.8 ug/ml by microplate alamar blue assay (reference value: 75%); settings: dose 0.8 µg/ml
# [15] = tested on: Mycobacterium tuberculosis; test: Synergistic antitubercular activity against Mycobacterium tuberculosis rifampin-resistant mutant assessed as rifampin growth inhibition at 0.8 ug/ml by microplate alamar blue assay (reference value: 46%); settings: dose 0.8 µg/ml
# [16] = tested on: Mycobacterium tuberculosis; test: Synergistic antitubercular activity against Mycobacterium tuberculosis bedaquiline-resistant mutant 7 assessed as bedaquiline MIC=>90 at 0.8 ug/ml by microplate alamar blue assay (Rvb >2 uM); settings: dose 0.8 µg/ml
# [17] = tested on: Mycobacterium tuberculosis; test: Synergistic antitubercular activity against Mycobacterium tuberculosis bedaquiline-resistant mutant H15 assessed as bedaquiline MIC=>90 at 0.8 ug/ml by microplate alamar blue assay (Rvb >2 uM); settings: dose 0.8 µg/ml
smiles,measurement,setting,value
CC(C)N(C(=O)CCNCCCC1CCCC1)C(C)C,MIC,[1],0.91 µM
same,growth inhibition (GI),[2],0%
same,EC90,[3],9.67 µg/mL
same,MIC,[4],>8 µM
same,growth inhibition (GI),[5],47%
same,MIC90,[6],1.87 µg/mL
same,MIC,[7],>1 µM
same,growth inhibition (GI),[8],72%
same,MIC90,[9],1.78 µg/mL
same,MIC,[10],>2 µM
NNC(=O)c1ccncc1 [ISONIAZID],MIC90,[6],> 8 µM
same,MIC90,[9],0.32 µM
CC(=O)NC[C@H]1CN(c2ccc(N3CCOCC3)c(F)c2)C(=O)O1 [LINEZOLID],MIC90,[6],0.94 µM
same,MIC90,[9],1.14 µM
CC(C)N(C(=O)CCNCCC(c1ccccc1)c1ccccc1)C(C)C,MIC,[11],>8 µM
same,growth inhibition (GI),[12],17%
same,MIC,[13],>1 µM
same,EC90,[3],9.93 µg/mL
same,growth inhibition (GI),[14],76%
same,MIC90,[6],3.01 µg/mL
same,growth inhibition (GI),[15],60%
same,MIC,[16],0.53 µM
same,MIC,[17],>2 µM
same,MIC90,[9],3.32 µg/mL
COc1nc2ccc(Br)cc2cc1[C@@H](c1ccccc1)[C@@](O)(CCN(C)C)c1cccc2ccccc12 [BEDAQUILINE],EC90,[3],360 nM
CO[C@H]1/C=C/O[C@@]2(C)Oc3c(C)c(O)c4c(O)c(c(/C=N/N5CCN(C)CC5)c(O)c4c3C2=O)NC(=O)/C(C)=C\C=C\[C@H](C)[C@H](O)[C@@H](C)[C@@H](O)[C@@H](C)[C@H](OC(C)=O)[C@@H]1C [RIFAMPIN],MIC90,[6],0.03 µM
same,MIC90,[9],> 1 µM
